“Also recorded” adds a separate entry of the source.
Legend:
GL261-Luc2 glioma (GBM) = assay: GL261-Luc2 implanted mice treated with probucol, TMZ or both; type: in vivo, mouse; details: FIGS. 20A-C
Method: WT mice were IC implanted with GL261-Luc2 cells. […] (FIG. 20A) Tumor growth curve as determined by IVIS, (FIG. 20B) mice weight loss, and (FIG. 20C) Kaplan-Meier curves assess overall survival. p-value by Two-way ANOVA. Data represent Mean±SEM, 8 mice/group.
For intracranial mouse glioma, mice were anesthetized, positioned in a Stereotaxic Alignment System, and injected with 1.5×10^4 GL261 or CT-2A cells in 2 μl of DMEM. Injections were made to the right frontal lobe, approximately 2.5 mm lateral and 0.1 mm caudal from bregma at a depth of 3 mm. In-vivo bioluminescence imaging, following XenoLight D-luciferin Potassium Salt administration (150 mg/kg) i.p. administration, was determined using IVIS Spectrum system (PerkinElmer). Ganciclovir (GCV, Cymevene, Roche #SAP-10051872; 25 mg/kg), Diphtheria-toxin (DT, Sigma-Aldrich, #D0564; 1100 ng/mice), or vehicle control (PBS) were administered daily following tumor establishment (day 10), as previously described (Mayo, L., et al. Nat Med (2014) 20: 1147-1156). CD8^+ T cell depletion was performed using an anti-CD8 monoclonal antibody (53.6-7, Bioxcell) or an isotype control monoclonal antibody (2A3, Bioxcell), as previously described (Takenaka, M. C. et al. Control of tumor-associated macrophages and T cells in glioblastoma via AHR and CD39. Nat Neurosci 22, 729-740 (2019)). GBM-bearing mice were intraperitoneally injected (0.1 mg/mouse) with an anti-CD8 or an isotype control mAbs, 1 day before, and 7 days after, GCV administration. CD8 T-cell depletion was validated by FACS analysis using a Sony SH800 FACS instrument (Sony Biotechnology). Data analysis was performed using FlowJo v10 (TreeStar, USA). The following reagents were used for analysis: anti-CD45 (1:100; 30-F11, Biolegend, #103106), anti-CD3□ (1:50; 145-2C11, Biolegend #100335), and anti-CD8a (1:100; 53-6.7, Biolegend, #100765).

[1] = target: cholesterol transporter ABCA1 (Homo sapiens, UniProt O95477); details: cited from earlier work
GL261 glioma (GBM) = assay: Primary GBM model: GL261 intracranially implanted mice treated with Probucol; type: in vivo, mouse; details: for tumor growth (IVIS): Probucol 30 mg/kg daily from day 10 (quarter of HED) vs vehicle, FIG. 16B
Method: (FIG. 16A) Illustration of the experimental design for primary and recurrent GBM models. (FIGS. 16B-D) WT mice were intracranially (IC) implanted with GL261 cells. Tumor-bearing mice were treated daily, starting at day 10, with Probucol (30 mg/kg) or vehicle. (FIG. 16B) Tumor growth curve as determined by IVIS, (FIG. 16C) mice weight loss, and (FIG. 16D) Kaplan-Meier curves assess overall survival. p-value by Two-way ANOVA. Data represent Mean±SEM, 8 mice/group. (FIG. 16E) Illustration of the predicted effects of probucol or glyburide in the different models/disease stages.
For intracranial mouse glioma, mice were anesthetized, positioned in a Stereotaxic Alignment System, and injected with 1.5×10^4 GL261 or CT-2A cells in 2 μl of DMEM. Injections were made to the right frontal lobe, approximately 2.5 mm lateral and 0.1 mm caudal from bregma at a depth of 3 mm. In-vivo bioluminescence imaging, following XenoLight D-luciferin Potassium Salt administration (150 mg/kg) i.p. administration, was determined using IVIS Spectrum system (PerkinElmer). Ganciclovir (GCV, Cymevene, Roche #SAP-10051872; 25 mg/kg), Diphtheria-toxin (DT, Sigma-Aldrich, #D0564; 1100 ng/mice), or vehicle control (PBS) were administered daily following tumor establishment (day 10), as previously described (Mayo, L., et al. Nat Med (2014) 20: 1147-1156). CD8^+ T cell depletion was performed using an anti-CD8 monoclonal antibody ([…], Bioxcell) or an isotype control monoclonal antibody (2A3, Bioxcell), as previously described (Takenaka, M. C. et al. Control of tumor-associated macrophages and T cells in glioblastoma via AHR and CD39. Nat Neurosci 22, 729-740 (2019)). GBM-bearing mice were intraperitoneally injected (0.1 mg/mouse) with an anti-CD8 or an isotype control mAbs, 1 day before, and 7 days after, GCV administration. CD8 T-cell depletion was validated by FACS analysis using a Sony SH800 FACS instrument (Sony Biotechnology). Data analysis was performed using FlowJo v10 (TreeStar, USA). The following reagents were used for analysis: anti-CD45 (1:100; 30-F11, Biolegend, #103106), anti-CD3[…] (1:50; 145-2C11, Biolegend #100335), and anti-CD8a (1:100; 53-6.7, Biolegend, #100765).
To investigate this hypothesis, C57Bl/6 mice are implanted with GFP^+ luciferase-expressing glioma cells (GL261 or CT-2A), using two subtype models—primary or recurrent GBM/brain tumor resection (as illustrated in FIG. 16A), and are treated daily with probucol, glyburide, or vehicle control, with or without a potent statin (e.g., simvastatin as shown in FIG. 15A). The dosage of the different drugs is optimized based on FDA guidelines for conversions from human-accepted dosages (Table 5 below).
In the primary GBM model (pGBM)—10 days after tumor implantation, the mice are treated with cholesterol-lowering drugs (FIG. 16A). In the recurrent GBM model (rGBM), 12-14 days after inoculation of the mice with the tumor cells, the visible tumor(s) are surgically removed, based on GFP expression, under a stereoscope. The mice are then allowed to recover for a week and then are treated with cholesterol-lowering drugs (FIG. 16A). Of note, tumor formation or recurrence is monitored by bioluminescence (BLI) signals from the tumor cells on in-vivo imaging system (IVIS) spectrum and quantified with Living Image software. Mice are monitored for tumor growth, peritumoral brain edema formation, and mouse survival until the experimental endpoint (extreme lethargy or body weight reduction of greater than 20%), or are euthanized seven days after treatment with the cholesterol-lowering drugs to assess tumor burden, angiogenesis, BBB stability, and immunomodulatory activity in-situ. Tumor volume is evaluated in-vivo by determining tumor BLI, and by histopathology analysis postmortem. Peritumoral brain edema is evaluated in-vivo using IVISense™ Edema (Superhance™ 680) fluorescent probe. […]

[2] = summary statement on ABCA1 inhibitors, FIGS. 16A-E

Sequence of cholesterol transporter ABCA1 (O95477 whole entry): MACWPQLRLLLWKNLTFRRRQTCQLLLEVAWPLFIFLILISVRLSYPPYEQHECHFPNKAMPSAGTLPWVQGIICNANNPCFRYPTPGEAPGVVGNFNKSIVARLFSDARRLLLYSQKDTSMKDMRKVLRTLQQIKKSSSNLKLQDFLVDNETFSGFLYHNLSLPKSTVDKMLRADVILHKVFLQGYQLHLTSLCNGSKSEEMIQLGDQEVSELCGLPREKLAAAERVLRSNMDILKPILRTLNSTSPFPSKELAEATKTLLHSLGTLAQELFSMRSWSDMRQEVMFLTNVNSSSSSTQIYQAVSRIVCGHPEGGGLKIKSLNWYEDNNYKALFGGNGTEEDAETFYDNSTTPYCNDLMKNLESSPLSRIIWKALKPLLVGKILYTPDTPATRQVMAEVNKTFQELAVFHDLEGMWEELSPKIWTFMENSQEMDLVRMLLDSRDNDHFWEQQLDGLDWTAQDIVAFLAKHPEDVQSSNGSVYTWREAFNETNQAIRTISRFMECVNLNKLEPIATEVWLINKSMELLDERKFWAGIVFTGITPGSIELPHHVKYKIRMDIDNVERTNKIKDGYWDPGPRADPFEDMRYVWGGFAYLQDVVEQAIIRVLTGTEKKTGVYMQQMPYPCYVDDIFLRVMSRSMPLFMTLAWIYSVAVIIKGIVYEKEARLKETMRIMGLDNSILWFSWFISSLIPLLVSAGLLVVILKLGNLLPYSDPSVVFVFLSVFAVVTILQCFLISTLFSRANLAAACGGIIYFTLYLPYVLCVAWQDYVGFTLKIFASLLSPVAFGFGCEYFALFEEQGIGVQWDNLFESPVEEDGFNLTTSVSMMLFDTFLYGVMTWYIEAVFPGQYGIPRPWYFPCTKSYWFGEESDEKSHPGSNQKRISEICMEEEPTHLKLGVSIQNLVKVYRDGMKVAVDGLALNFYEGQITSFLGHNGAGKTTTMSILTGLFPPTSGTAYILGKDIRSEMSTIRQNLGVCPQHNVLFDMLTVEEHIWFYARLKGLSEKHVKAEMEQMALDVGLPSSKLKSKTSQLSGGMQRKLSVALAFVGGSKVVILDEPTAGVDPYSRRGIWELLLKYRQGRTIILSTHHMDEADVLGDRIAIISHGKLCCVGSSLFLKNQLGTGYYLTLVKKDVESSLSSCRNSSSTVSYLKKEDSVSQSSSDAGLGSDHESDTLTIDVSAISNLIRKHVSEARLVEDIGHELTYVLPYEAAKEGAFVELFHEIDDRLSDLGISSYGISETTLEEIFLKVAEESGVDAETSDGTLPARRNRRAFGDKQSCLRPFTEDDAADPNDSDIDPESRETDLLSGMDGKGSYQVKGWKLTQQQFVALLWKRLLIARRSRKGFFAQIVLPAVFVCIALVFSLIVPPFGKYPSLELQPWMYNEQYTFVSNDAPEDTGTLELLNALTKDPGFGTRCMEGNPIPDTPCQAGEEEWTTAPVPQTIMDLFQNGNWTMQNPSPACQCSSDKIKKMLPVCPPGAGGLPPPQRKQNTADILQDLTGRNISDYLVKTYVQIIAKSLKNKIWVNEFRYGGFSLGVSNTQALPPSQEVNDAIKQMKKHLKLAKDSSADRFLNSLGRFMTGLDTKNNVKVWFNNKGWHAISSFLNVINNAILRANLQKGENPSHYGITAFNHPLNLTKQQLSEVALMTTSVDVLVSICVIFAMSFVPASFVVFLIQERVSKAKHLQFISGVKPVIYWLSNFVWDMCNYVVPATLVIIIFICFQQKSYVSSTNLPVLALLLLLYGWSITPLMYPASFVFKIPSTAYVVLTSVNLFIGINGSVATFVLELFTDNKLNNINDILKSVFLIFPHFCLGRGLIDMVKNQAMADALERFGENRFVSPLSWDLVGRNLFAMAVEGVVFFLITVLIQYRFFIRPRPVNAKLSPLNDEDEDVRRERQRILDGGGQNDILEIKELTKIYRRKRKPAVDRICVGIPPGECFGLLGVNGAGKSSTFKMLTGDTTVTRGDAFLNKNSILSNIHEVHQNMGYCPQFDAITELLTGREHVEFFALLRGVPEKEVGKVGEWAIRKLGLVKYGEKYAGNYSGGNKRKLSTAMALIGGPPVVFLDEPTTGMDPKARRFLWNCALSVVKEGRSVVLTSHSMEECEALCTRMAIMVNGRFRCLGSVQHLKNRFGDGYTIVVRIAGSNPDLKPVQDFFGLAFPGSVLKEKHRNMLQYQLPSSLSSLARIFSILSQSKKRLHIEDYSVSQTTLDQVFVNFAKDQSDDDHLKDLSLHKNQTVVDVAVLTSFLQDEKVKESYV

In the case of `CC(C)(Sc1cc(C(C)(C)C)c(O)c(C(C)(C)C)c1)Sc1cc(C(C)(C)C)c(O)c(C(C)(C)C)c1` [Probucol], the “therapeutic effect (potency) of TMZ” value (GL261-Luc2 glioma (GBM); probucol 30 mg/kg combined with TMZ 2.5 mg/kg, GL261-Luc2 bearing mice) is listed as “enhances the potency of TMZ therapeutic; also recorded: dramatically enhanced the therapeutic effect of TMZ”, the GBM pathogenicity (GL261-Luc2 glioma (GBM); probucol 30 mg/kg, limited course (two days before, during and two days after TMZ course), from day 10) is listed as “able to halt GBM pathogenicity” and the ABCA1 inhibitor potency [1] is listed as “strong”. For the same compound, the “tumor growth (IVIS)” value (GL261 glioma (GBM); GL261-bearing WT mice) was “attenuates GBM progression”, the “tumor growth (IVIS)” value (GL261 glioma (GBM); GL261-bearing WT mice, listed as probucol) was “significantly attenuated” and the “weight loss associated with tumor burden” value (GL261 glioma (GBM); GL261-bearing WT mice, Probucol 30 mg/kg daily from day 10 vs vehicle, FIG. 16C) was “significantly attenuated”. For the same compound, the “survival (Kaplan-Meier)” value (GL261 glioma (GBM); GL261-bearing WT mice, Probucol 30 mg/kg daily from day 10 vs vehicle, FIG. 16D) was “improved”, the “survival of subjects having GBM in-vivo” value (GL261 glioma (GBM); [2]) was “prolonging survival” and the “tumor size of subjects having GBM in-vivo” value (GL261 glioma (GBM); [2]) was “decreasing tumor size”. For the same compound, the “weight loss of subjects having GBM in-vivo” value (GL261 glioma (GBM); [2]) was “preventing weight loss”.

— US20250082766A1, “TREATMENT OF BRAIN TUMORS BY TARGETING THE CHOLESTEROL PATHWAY IN ASTROCYES” (Ramot at Tel-Aviv University Ltd., priority 2022, published 2025)
